One assay concerns absence seizures. Particulars: childhood absence epilepsy, cited from earlier work.
The target in assay [1] is T1, Human Cav3.1 calcium channel (Homo sapiens, UniProt O43497).
T1 construct: expressed in transfected cells; host or cells: HEK-293 natClytin/TASK1+Cav3.1 cell line
The assay is described as follows: Human Cav3.1 calcium channel patch clamp assay (SyncroPatch 384PE; single point and IC50, voltage dependent block). The settings on record: for % Inhibition (Single Point Data): patch clamp. In kind it is cell-based. The procedure, abridged:
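Automated whole-cell patch clamp at room temperature, cells held at −120 mV; 100 ms step to −20 mV (resting block), then 1600 ms at −65 mV and a second −20 mV step (voltage-dependent block), every 15 s. Peak currents averaged over last 3 sweeps; % inhibition relative to nickel-sensitive current.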
Background: In patch-clamp work, channel activity is measured electrically.

The mark [2] stands for this setting: at 16 weeks, assessed by video-EEG recordings.
Where [3] appears, read: Testing Conc 1.25, HEK-293 natClytin/TASK1+Cav3.1 cell line.
[4] abbreviates: voltage dependent block (VDB), HEK-293 natClytin/TASK1+Cav3.1 cell line, read-out: Cav3.1 IC50.

Data on 20 compounds can be found in patent US20250213558A1, “T-TYPE CALCIUM CHANNEL MODULATORS COMPRISING A PIPERAZINE OR 1,4-DIAZEPANE CORE AND METHODS OF USE THEREOF” (Praxis Precision Medicines, Inc., priority 2022, published 2025).

pIC50: −log10 of the molar value. Like-named read-outs stand apart in the source and are kept apart here.

T1 sequence (O43497 whole entry): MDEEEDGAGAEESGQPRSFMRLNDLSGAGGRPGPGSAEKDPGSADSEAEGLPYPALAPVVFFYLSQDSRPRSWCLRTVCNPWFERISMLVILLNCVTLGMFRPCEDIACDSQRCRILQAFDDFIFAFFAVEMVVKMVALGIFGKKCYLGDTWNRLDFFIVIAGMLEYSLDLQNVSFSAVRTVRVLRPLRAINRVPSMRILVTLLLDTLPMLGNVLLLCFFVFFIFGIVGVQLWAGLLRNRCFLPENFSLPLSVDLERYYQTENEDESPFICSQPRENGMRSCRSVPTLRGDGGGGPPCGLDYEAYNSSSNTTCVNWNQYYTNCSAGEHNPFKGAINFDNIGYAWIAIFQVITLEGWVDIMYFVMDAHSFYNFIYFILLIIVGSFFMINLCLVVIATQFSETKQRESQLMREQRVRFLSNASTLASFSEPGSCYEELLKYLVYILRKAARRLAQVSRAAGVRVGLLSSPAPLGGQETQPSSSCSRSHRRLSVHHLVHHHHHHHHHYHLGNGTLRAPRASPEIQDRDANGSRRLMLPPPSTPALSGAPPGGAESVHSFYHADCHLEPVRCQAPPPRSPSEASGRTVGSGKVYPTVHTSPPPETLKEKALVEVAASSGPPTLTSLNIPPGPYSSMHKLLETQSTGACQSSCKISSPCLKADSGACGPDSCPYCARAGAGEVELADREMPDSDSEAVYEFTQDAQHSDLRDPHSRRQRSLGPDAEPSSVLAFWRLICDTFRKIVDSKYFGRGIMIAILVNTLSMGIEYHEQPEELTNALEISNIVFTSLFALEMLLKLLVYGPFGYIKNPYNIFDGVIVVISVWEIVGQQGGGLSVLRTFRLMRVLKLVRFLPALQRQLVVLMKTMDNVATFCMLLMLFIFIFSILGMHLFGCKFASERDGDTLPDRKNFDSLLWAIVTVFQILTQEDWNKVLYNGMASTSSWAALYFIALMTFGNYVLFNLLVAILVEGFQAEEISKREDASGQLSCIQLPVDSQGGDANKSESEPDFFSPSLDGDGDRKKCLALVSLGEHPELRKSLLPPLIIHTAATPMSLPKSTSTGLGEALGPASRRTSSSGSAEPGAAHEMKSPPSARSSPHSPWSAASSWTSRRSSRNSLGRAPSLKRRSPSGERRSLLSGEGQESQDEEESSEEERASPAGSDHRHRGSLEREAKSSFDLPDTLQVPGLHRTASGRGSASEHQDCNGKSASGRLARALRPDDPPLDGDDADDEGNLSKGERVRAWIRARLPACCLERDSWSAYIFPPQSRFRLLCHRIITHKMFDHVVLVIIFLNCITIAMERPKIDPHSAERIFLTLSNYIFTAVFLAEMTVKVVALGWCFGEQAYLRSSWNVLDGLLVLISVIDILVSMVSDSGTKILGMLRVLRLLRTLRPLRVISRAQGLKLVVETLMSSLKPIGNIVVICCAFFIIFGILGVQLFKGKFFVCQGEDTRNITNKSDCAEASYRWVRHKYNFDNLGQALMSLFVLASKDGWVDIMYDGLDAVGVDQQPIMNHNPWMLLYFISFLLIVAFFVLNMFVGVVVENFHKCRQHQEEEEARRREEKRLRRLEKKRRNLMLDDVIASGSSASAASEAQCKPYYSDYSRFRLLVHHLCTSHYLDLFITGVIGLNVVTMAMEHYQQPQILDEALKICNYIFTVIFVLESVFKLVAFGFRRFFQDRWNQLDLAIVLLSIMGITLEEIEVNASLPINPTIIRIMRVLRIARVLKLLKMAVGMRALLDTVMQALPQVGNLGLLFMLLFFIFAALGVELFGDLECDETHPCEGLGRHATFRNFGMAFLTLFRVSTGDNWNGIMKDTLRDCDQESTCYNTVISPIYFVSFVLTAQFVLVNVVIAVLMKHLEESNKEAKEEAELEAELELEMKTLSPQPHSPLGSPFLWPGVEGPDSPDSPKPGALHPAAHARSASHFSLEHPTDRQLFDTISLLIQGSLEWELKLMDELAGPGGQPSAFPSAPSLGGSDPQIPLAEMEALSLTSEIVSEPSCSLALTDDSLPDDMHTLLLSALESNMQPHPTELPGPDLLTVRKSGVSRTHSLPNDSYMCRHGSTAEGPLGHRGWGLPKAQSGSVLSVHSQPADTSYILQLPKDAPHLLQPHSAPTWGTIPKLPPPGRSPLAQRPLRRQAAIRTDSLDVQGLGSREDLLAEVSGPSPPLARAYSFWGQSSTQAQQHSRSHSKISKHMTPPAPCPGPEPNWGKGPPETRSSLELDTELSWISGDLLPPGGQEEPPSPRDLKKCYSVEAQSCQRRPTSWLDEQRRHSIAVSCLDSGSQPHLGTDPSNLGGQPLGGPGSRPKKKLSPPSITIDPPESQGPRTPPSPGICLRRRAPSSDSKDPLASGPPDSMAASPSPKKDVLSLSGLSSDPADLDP

Consider `Nc1nnc(-c2cccc(Cl)c2Cl)c(N)n1` [Lamotrigine], for which the results for the “patients in whom the seizures were completely controlled” value in the assay with absence seizures (at 12 months) and with absence seizures (setting [2]) were 21% and 29%, respectively.

`CCC1(C)CC(=O)NC1=O` (centres unmarked) [ethosuximide]: the “patients in whom the seizures were completely controlled” value in the assay on absence seizures (at 12 months) is listed as 45%; with absence seizures (setting [2]), 53%.

Regarding `CC(C)(C(=O)NCCN1C2CC1CN(CC(=O)Nc1cc(F)cc(Cl)c1)C2)C(F)(F)F` [Compound 230], the “% Inhibition (Single Point Data)” value in assay [1] (setting [3]) was determined as 96.987%.

In general, pIC50 refers to the IC50 on a negative log10 scale, so that one unit is a factor of ten. As to `CC(C)(C)NC(=O)CN1C2CCC1CN(Cc1nc3c(Cl)cccc3[nH]1)C2` [Compound 189], the pIC50 in assay [1] was greater than 7.11. In assay [1] (setting [3]), the “% Inhibition (Single Point Data)” value was 92.283%.

In the case of `Cc1cc(NC(=O)CN2C[C@@H]3C[C@H]2CN3CC(=O)NC(C)(C)C)ccc1F` [Compound 341], the “% Inhibition (Single Point Data)” value in assay [1] (setting [3]) is 62.973%. The pIC50 in assay [1] (setting [4]) is 6.35.

In the case of `CC(C)(NC(=O)CN1CC2CC1CN2CC(=O)Nc1cc(F)cc(Cl)c1)C(F)(F)F` (centres unmarked) [Compound 47], the “% Inhibition (Single Point Data)” value in assay [1] (setting [3]) was 89.371%. The pIC50 in assay [1] (setting [4]) was 7.47.

With `CC(C)(C)NC(=O)CN1CC2COCC(C1)C2CC(=O)Nc1cc(F)cc(Cl)c1` (centres unmarked) [Compound 368], in assay [1] (setting [4]), the pIC50 is 6.90.

As to `CC(C)(C)NC(=O)CN1C[C@H]2COC[C@@H](C1)[C@@H]2CC(=O)Nc1cc(F)cc(Cl)c1` [Compound 372], the pIC50 in assay [1] (setting [4]) was 6.79.

Take `COc1cc(NC(=O)CN2C[C@@H]3C[C@H]2CN3CC(=O)NC2(C(F)(F)F)CC2)ccc1F` [Compound 311]: in assay [1] (setting [3]), the “% Inhibition (Single Point Data)” value came to 83.804%. The pIC50 in assay [1] (setting [4]) was 6.41.

`O=C(CN1C[C@@H]2C[C@H]1CN2CC(=O)NC1(C(F)(F)F)CC1)NC12CC3CC(CC(C3)C1)C2` [Compound 280]: the “% Inhibition (Single Point Data)” value in assay [1] (setting [3]) is reported as 61.038%. Also, in assay [1] (setting [4]), the pIC50 is 6.12.

In the case of `O=C(CN1CC2CC1CN2CCNC(=O)C1(C(F)(F)F)CC1)Nc1cc(F)cc(Cl)c1` (centres unmarked) [Compound 227], the “% Inhibition (Single Point Data)” value in assay [1] (setting [3]) was found to be 78.995%. In addition, the pIC50 in assay [1] (setting [4]) is 6.80.

`Fc1ccc(Cl)c2nc(CN3CCN(CC(F)C4CCCCC4)CC3)[nH]c12` (centres unmarked) [Compound 161]: the “% Inhibition (Single Point Data)” value in assay [1] (setting [3]) was 95.402%. For the same compound, the pIC50 in assay [1] (setting [4]) was greater than 7.11.

As for `CC(C(=O)NC(C)(C)C)N1C2CC1CN(CC(=O)Nc1ccc(F)c(OC(F)F)c1)C2` (centres unmarked) [Compound 254], the “% Inhibition (Single Point Data)” value in assay [1] (setting [3]) turned out to be 93.503%. For the same compound, the pIC50 in assay [1] (setting [4]) is 6.94.

Take `CC(C)(C)NC(=O)CN1CCN(Cc2nnc(-c3cc(F)cc(Cl)c3)[nH]2)CC1` [Compound 61, N-tert-butyl-2-[4-[[5-(3-chloro-5-fluoro-phenyl)-4H-1,2,4-triazol-3-yl]methyl]piperazin-1-yl]acetamide]: the “% Inhibition (Single Point Data)” value in assay [1] (Testing Conc 1, HEK-293 natClytin/TASK1+Cav3.1 cell line) was 40.739%. Besides, the pIC50 in assay [1] (setting [4]) was 5.55.

In the case of `CC(C)(C)NC(=O)CN1CC[C@H](CNc2nccc3ccc(Cl)cc23)CC1=O` [Compound 45], the “% Inhibition (Single Point Data)” value in assay [1] (setting [3]) is recorded as 58.802%.

For the compound `O=C(CN1CC2CC(C1)N2CC(F)C1CCCCC1)Nc1cc(F)cc(Cl)c1` (centres unmarked) [Compound 49], the “% Inhibition (Single Point Data)” value in assay [1] (setting [3]) turned out to be 44.843%. Also, the pIC50 in assay [1] (setting [4]) is 5.93.

With `Fc1cc(Cl)c2nc(CN3CCN(CCc4ccccc4)CC3)[nH]c2c1` [Compound 69], the “% Inhibition (Single Point Data)” value in assay [1] (setting [3]) was determined as 86.68%. For the same compound, the pIC50 in assay [1] (setting [4]) is 6.40.

On to `COc1ccc(F)c2[nH]c(CN3CC4CC(C3)N4CC(=O)NC(C)(C)C(F)(F)F)nc12` [Compound 183], for which the pIC50 in assay [1] was 7.06. Also, the “% Inhibition (Single Point Data)” value in assay [1] (setting [3]) amounted to 95.323%.

Turning to `Cc1cc(F)cc(NC(=O)CN2CC3CC(C2)N3CC(=O)NC2(C(F)(F)F)CC2)c1` [Compound 335], the “% Inhibition (Single Point Data)” value in assay [1] (setting [3]) is listed as 84.646%. Besides, the pIC50 in assay [1] (setting [4]) is 6.47.

Consider `COc1ccc(Cl)c2nc(CN3CC4CC(C3)N4CC(=O)NC(C)(C)C(F)(F)F)[nH]c12` [Compound 136], for which, in assay [1] (setting [3]), the “% Inhibition (Single Point Data)” value turned out to be 100.03%.
